According to article PMC7408072 (Pharmaceutics, 2020):
Peptide text beside a SMILES is read from it. * marks the point of attachment. 5TAMRA = CN(C)c1ccc2c(c1)Oc1cc(N(C)C)ccc1C21OC(=O)c2cc(C(=O)*)ccc21

Key:
[1] = tested on: bovine BCEC monolayers co-cultured with rat astrocytes; test: Transport and cell uptake of 3-5 kDa FITC-dextran in the presence of peptide (bovine model); format: cell-based; conditions: 1 mg/mL FITC-dextran with 100 µM peptide, luminal, 3 h, abluminal FITC fluorescence; N = 3, n = 3
Protocol: (§1) Transport across bovine or mouse BCEC monolayers co-cultured with rat astrocytes was carried out over 3 h at 37 °C with horizontal shaking (90 rpm). TEER was measured at room temperature using an Endohm 12 cup (World Precision Instruments, Sarasota, FL, USA) connected to a Millicell-ERS device (Millipore, Bedford, MA, USA). TEER was measured before application of the peptides and after each experiment. The bovine model had initial TEER values ranging from 771 to 1332 Ω·cm^2, whereas the mouse model had initial TEER values ranging from 136 to 217 Ω·cm^2.
FITC fluorescence was measured using a NovoStar fluorescence plate reader (BMG Labtech, Offenburg, Germany) with excitation/emission set to 494/518 nm. […] The filters were washed with PBS thrice for 5 min, mounted on glass slides under coverslips using Immu-Mount™ mounting media (Thermo Fischer Scientific, Bedford, MA, USA), and imaged using single wavelength excitation on a Leica SP2 laser-scanning confocal microscope (Leica Microsystems, Wetzlar, Germany).

[2] = tested on: primary mouse BCECs in co-culture with primary rat astrocytes; test: Transport and cellular accumulation (mouse BBB model); format: in vitro ADME; conditions: 100 µM peptide, 3 h, TAMRA fluorescence; for transendothelial permeation of the mouse BBB model compared to TAMRA-NR2B9c: N = 3, n = 3 (Figure S5A); for accumulation in the cell fraction of the mouse BBB model compared to TAMRA-NR2B9c: lysate, N = 3, n = 3 (Figure S5B)
Protocol: Generation of mouse BCEC monolayers in co-culture with rat astrocytes: the capillary fragments were allowed to settle for 2–3 h before changing the media to DMEM containing 10% FBS and pyromycin (4 µg/mL). On day 3, the media was changed to DMEM containing 10% FBS and rat astrocytes seeded on the bottom of collagen and fibronectin coated (both 0.01 mg/mL in PBS) Transwell® plate permeable supports (120,000 cells/1.12 cm^2 support with 0.4 µm pore size). On day 5, the media in the Transwell® plate was changed to Complete Mouse Endothelial Cell Medium (PELOBiotech, Planegg/Martinsried, Germany). The endothelial cells were detached from the flask using trypsin-EDTA. The remaining trypsin-EDTA was removed by centrifugation in DMEM containing 10% FBS at 500× g for 5 min at room temperature. The endothelial cells were re-suspended in Complete Mouse Endothelial Cell Medium and seeded on the apical side of the Transwell® plate permeable supports (100,000 cells/support). On day 8, the medium was changed to differentiation medium. On day 10, the mouse BBB model was ready for use as evident by the measured transendothelial electrical resistance (TEER) values for each filter prior experimental start.
as §1
The withdrawn volume was replaced with media.
Transported peptide was calculated based on fluorescence using the same method as described for peptides applied to the bovine model. Subsequently, the peptide solutions were removed from the cells and the filters washed thrice with 4 °C hHBSS. To isolate the peptides accumulated in the cell fraction, the filter inserts were cut out and 250 µL of ice-cold lysis buffer added. The peptides were retrieved and quantified as described for the cell uptake fraction obtained following the permeation study using the bovine model.

SMILES | transendothelial permeation of 3-5 kDa FITC-dextran applied with peptide, compared to FITC-dextran alone [1] | transendothelial permeation of the mouse BBB model compared to TAMRA-NR2B9c [2] | accumulation in the cell fraction of the mouse BBB model compared to TAMRA-NR2B9c [2]
CC[C@H](C)[C@H](NC(=O)CCOCCOCCN(CCOCCOCCC(=O)N[C@H](C(=O)N[C@@H](CCC(=O)O)C(=O)N[C@H](C(=O)N[C@@H](CC(=O)O)C(=O)N[C@H](C(=O)O)C(C)C)[C@@H](C)O)[C@@H](C)CC)C(=O)[C@H](CCCNC(=N)N)NC(=O)[C@H](CCCNC(=N)N)NC(=O)[C@H](CCCNC(=N)N)NC(=O)[C@H](CCC(N)=O)NC(=O)[C@H](CCCNC(=N)N)NC(=O)[C@H](CCCNC(=N)N)NC(=O)[C@H](CCCCN)NC(=O)[C@H](CCCCN)NC(=O)[C@H](CCCNC(=N)N)NC(=O)CNC(=O)[C@H](Cc1ccc(O)cc1)NC(=O)c1ccc2c(c1)C(=O)OC21c2ccc(N(C)C)cc2Oc2cc(N(C)C)ccc21)C(=O)N[C@@H](CCC(=O)O)C(=O)N[C@H](C(=O)N[C@@H](CC(=O)O)C(=O)N[C@H](C(=O)O)C(C)C)[C@@H](C)O [TAMRA-Tat-N-dimer] | did not increase | lower | 
CC[C@H](C)[C@H](NC(=O)[C@H](CO)NC(=O)[C@H](CO)NC(=O)[C@H](CC(C)C)NC(=O)[C@H](CCCCN)NC(=O)[C@H](CCCNC(=N)N)NC(=O)[C@H](CCCNC(=N)N)NC(=O)[C@H](CCCNC(=N)N)NC(=O)[C@H](CCC(N)=O)NC(=O)[C@H](CCCNC(=N)N)NC(=O)[C@H](CCCNC(=N)N)NC(=O)[C@H](CCCCN)NC(=O)[C@H](CCCCN)NC(=O)[C@H](CCCNC(=N)N)NC(=O)CNC(=O)[C@H](Cc1ccc(O)cc1)NC(=O)c1ccc2c(c1)C(=O)OC21c2ccc(N(C)C)cc2Oc2cc(N(C)C)ccc21)C(=O)N[C@@H](CCC(=O)O)C(=O)N[C@@H](CO)C(=O)N[C@@H](CC(=O)O)C(=O)N[C@H](C(=O)O)C(C)C [TAMRA-Tat-NR2B9c] (5TAMRA-YGRKKRRQRRRKLSSIESDV-OH) |  | to a greater extent than TAMRA-NR2B9c | to a greater extent than TAMRA-NR2B9c
CN(C)c1ccc2c(c1)Oc1cc(N(C)C)ccc1C21OC(=O)c2cc(C(=O)N[C@@H](Cc3ccc(O)cc3)C(=O)NCC(=O)N[C@@H](CCCNC(=N)N)C(=O)N[C@@H](CCCCN)C(=O)N[C@@H](CCCCN)C(=O)N[C@@H](CCCNC(=N)N)C(=O)N[C@@H](CCCNC(=N)N)C(=O)N[C@@H](CCC(N)=O)C(=O)N[C@@H](CCCNC(=N)N)C(=O)N[C@@H](CCCNC(=N)N)C(=O)N[C@@H](CCCNC(=N)N)C(=O)O)ccc21 [TAMRA-Tat] |  | similar | to a greater extent than TAMRA-NR2B9c
